The supplement of paper PMC4862054
“And” between values parts separate entries of the source, which are not always exact repeats. Equal values may be shown once.

How the values were obtained:
Experiment in all cases: normalised viability (% of control), CellTiter-Blue; higher = more viable cells (about 100 = DMSO control)
BT-474 = settings: incubation time: 72 h
Procedure: (§1)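 DSRT, CellTiter-Blue viability, 72 h incubation. Signal is normalised to DMSO and benzethonium chloride controls. Value is the normalised response at dose 3.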

BT-549 [1] = settings: incubation time: 72 h
Procedure: as §1

CAL-120 [2] = settings: incubation time: 72 h
Procedure: as §1

CAL-148 [3] = settings: incubation time: 72 h
Procedure: as §1

CAL-51 [4] = settings: incubation time: 72 h
Procedure: as §1

CAL-85-1 = settings: incubation time: 72 h
Procedure: as §1

DU-4475 [5] = settings: incubation time: 72 h
Procedure: as §1

HCC1143 [6] = settings: incubation time: 72 h
Procedure: as §1

HCC1599 [7] = settings: incubation time: 72 h
Procedure: as §1

HCC1937 [8] = settings: incubation time: 72 h
Procedure: as §1

HDQ-P1 [9] = settings: incubation time: 72 h
Procedure: as §1

MDA-MB-436 [10] = settings: incubation time: 72 h
Procedure: as §1

MDA-MB-453 = settings: incubation time: 72 h
Procedure: as §1

MDA-MB-468 = settings: incubation time: 72 h
Procedure: as §1

MFM-223 [11] = settings: incubation time: 72 h
Procedure: as §1

SK-BR-3 [12] = settings: incubation time: 72 h
Procedure: as §1

BT-549 [13] = settings: incubation time: 72 h; remark: listed apart in the source
Method in brief: (§2)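 After 72 h on compound-loaded 384-well plates, breast cancer cell lines received 2.5 µl CellTiter-Blue reagent for 2 h at 37 °C. Fluorescence at 560/590 nm was scaled per plate so that vehicle was 100 and a positive kill control was 0. The value stands for normalised viability at a single listed concentration of the series.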

CAL-120 [14] = settings: incubation time: 72 h; remark: listed apart in the source
Method in brief: as §2

CAL-148 [15] = settings: incubation time: 72 h; remark: listed apart in the source
Method in brief: as §2

CAL-51 [16] = settings: incubation time: 72 h; remark: listed apart in the source
Method in brief: as §2

DU-4475 [17] = settings: incubation time: 72 h; remark: listed apart in the source
Method in brief: as §2

HCC1143 [18] = settings: incubation time: 72 h; remark: listed apart in the source
Method in brief: as §2

HCC1599 [19] = settings: incubation time: 72 h; remark: listed apart in the source
Method in brief: as §2

HCC1937 [20] = settings: incubation time: 72 h; remark: listed apart in the source
Method in brief: as §2

HDQ-P1 [21] = settings: incubation time: 72 h; remark: listed apart in the source
Method in brief: as §2

MDA-MB-436 [22] = settings: incubation time: 72 h; remark: listed apart in the source
Method in brief: as §2

MFM-223 [23] = settings: incubation time: 72 h; remark: listed apart in the source
Method in brief: as §2

SK-BR-3 [24] = settings: incubation time: 72 h; remark: listed apart in the source
Method in brief: as §2

Hs578T = settings: 10 nM; incubation time: 72 h
Procedure: as §1

MDA-MB-231 = settings: 10 nM; incubation time: 72 h
Procedure: as §1

CS(=O)(=O)CCNCc1ccc(-c2ccc3ncnc(Nc4ccc(OCc5cccc(F)c5)c(Cl)c4)c3c2)o1 [Lapatinib]
Settings | normalised viability
BT-474, 100 nM | 51.4% and 56.8%
BT-549 [1], 100 nM | 85.1% and 107%
BT-549 [13], 10 nM | 74.6% and 99.6%
BT-549 [13], 1000 nM | 86.5% and 103%
BT-549 [13], 10000 nM | 14.1% and 20.7%
CAL-51 [4], 10 nM | 116% and 104%
CAL-51 [16], 3 nM | 122% and 101%
CAL-51 [16], 30 nM | 117% and 97.8%
CAL-51 [16], 100 nM | 112% and 102%
CAL-85-1, 10 nM | 94.6% and 101%
CAL-120 [2], 100 nM | 84.9% and 101%
CAL-120 [14], 10 nM | 92.4% and 99.8%
CAL-120 [14], 1000 nM | 92% and 102%
CAL-148 [3], 10 nM | 86% and 86.5%
CAL-148 [15], 3 nM | 92.2% and 89.8%
CAL-148 [15], 30 nM | 89.5% and 93.5%
CAL-148 [15], 100 nM | 89.3% and 83.7%
DU-4475 [5], 10 nM | 111% and 109%
DU-4475 [17], 3 nM | 104% and 85.5%
DU-4475 [17], 30 nM | 97.9% and 96.2%
DU-4475 [17], 100 nM | 95.9% and 91.3%
HCC1143 [6], 100 nM | 82.1% and 95.4%
HCC1143 [18], 10 nM | 70.7% and 83.8%
HCC1143 [18], 1000 nM | 76.2% and 89%
HCC1143 [18], 10000 nM | 71% and 82.7%
HCC1599 [7], 100 nM | 93.9% and 94.5%
HCC1599 [19], 10 nM | 108% and 96.7%
HCC1599 [19], 10000 nM | 63.5% and 83.8%
HCC1937 [8], 100 nM | 97.1% and 106%
HCC1937 [20], 1000 nM | 91.3% and 113%
HCC1937 [20], 10000 nM | 35.8% and 53.3%
HDQ-P1 [9], 10 nM | 102% and 124%
HDQ-P1 [21], 100 nM | 87.1% and 110%
MDA-MB-436 [10], 100 nM | 95.6% and 116%
MDA-MB-436 [22], 10 nM | 92.8% and 106%
MDA-MB-436 [22], 1000 nM | 91.3% and 112%
MDA-MB-436 [22], 10000 nM | 22.6% and 43.3%
MDA-MB-453, 10 nM | 95.8% and 83.7%
MDA-MB-468, 100 nM | 86.8% and 97.8%
MFM-223 [11], 100 nM | 94% and 92.9%
MFM-223 [23], 10 nM | 92.8% and 95.8%
MFM-223 [23], 1000 nM | 95.8% and 96.9%
MFM-223 [23], 10000 nM | 49.5% and 66%
SK-BR-3 [12], 100 nM | 34.6% and 32.9%
SK-BR-3 [24], 10 nM | 78.8% and 92.4%
SK-BR-3 [24], 1000 nM | 18.2% and 22.2%
SK-BR-3 [24], 10000 nM | 6.7% and 8.97%

Cn1cnc2c(F)c(Nc3ccc(Br)cc3F)c(C(=O)NOCCO)cc21 [MEK-162]
Settings | normalised viability [%]
BT-474, 10 nM | 114
BT-549 [1], 10 nM | 107
BT-549 [13], 1 nM | 100
BT-549 [13], 100 nM | 110
BT-549 [13], 1000 nM | 108
CAL-51 [4], 1 nM | 111
CAL-51 [16], 0.3 nM | 112
CAL-51 [16], 3 nM | 104
CAL-51 [16], 10 nM | 100
CAL-85-1, 1 nM | 98.1
CAL-120 [2], 10 nM | 92.2
CAL-120 [14], 1 nM | 98.1
CAL-120 [14], 100 nM | 93.8
CAL-120 [14], 1000 nM | 93.4
CAL-148 [3], 1 nM | 91.5
CAL-148 [15], 0.3 nM | 94
CAL-148 [15], 3 nM | 91
CAL-148 [15], 10 nM | 97.2
DU-4475 [5], 1 nM | 97.6
DU-4475 [17], 0.3 nM | 100
DU-4475 [17], 3 nM | 94
DU-4475 [17], 10 nM | 78.1
HCC1143 [6], 10 nM | 80.6
HCC1143 [18], 1 nM | 100
HCC1143 [18], 100 nM | 70.7
HCC1143 [18], 1000 nM | 61.8
HCC1599 [7], 10 nM | 111
HCC1599 [19], 1 nM | 90.5
HCC1599 [19], 100 nM | 88.4
HCC1599 [19], 1000 nM | 76.5
HCC1937 [8], 10 nM | 95.1
HCC1937 [20], 1 nM | 72.6
HCC1937 [20], 100 nM | 94.8
HCC1937 [20], 1000 nM | 88.5
HDQ-P1 [9], 1 nM | 114
HDQ-P1 [21], 0.3 nM | 110
HDQ-P1 [21], 3 nM | 105
HDQ-P1 [21], 10 nM | 113
MDA-MB-436 [10], 10 nM | 126
MDA-MB-436 [22], 1 nM | 114
MDA-MB-436 [22], 100 nM | 76.4
MDA-MB-436 [22], 1000 nM | 99.6
MDA-MB-453, 1 nM | 113
MDA-MB-468, 10 nM | 98
MFM-223 [11], 10 nM | 87.9
MFM-223 [23], 1 nM | 90.8
MFM-223 [23], 100 nM | 89.4
MFM-223 [23], 1000 nM | 94.5
SK-BR-3 [12], 10 nM | 83.4
SK-BR-3 [24], 1 nM | 111
SK-BR-3 [24], 100 nM | 111
SK-BR-3 [24], 1000 nM | 102

Settings | normalised viability [%]
Hs578T | 81.5
MDA-MB-231 | 92.5
